The values that follow come from patent publication US20230398153A1, “A METHOD FOR EFFICIENT MICROGLIA REPLACEMENT” (The Board of Trustees of the Leland Stanford Junior …, priority 2020, published 2023).

Each structure is given as a SMILES string.

In data set [1] the test system is peripheral blood cell populations. The data set is described as follows: Effect of PLX5622 after HSCT on peripheral blood cell populations. The format is in vivo. Conditions: PLX5622 10 days after HSCT, D38. As to the method:
FIG. 9. […] (A) Flow cytometry gating for analysis of donor chimerism in PB myeloid cells. (B) Myeloid chimerism in PB was analyzed by flow cytometry at the indicated time point (Horizontal bars represent median values. n=5-6/time point, ns: not significant, Student's t-test). (C) The effect of PLX5622 on PB myeloid cells was analyzed by flow cytometry. Flow cytometry gating for analysis of the indicated cell populations on D38. (D) Quantification of number of the indicated cell populations by flow cytometry (Mean±SEM, n=6/group, ns: not significant, Student's t-test). (E) Representative images of GFP+ and Iba-1+ cells, and DAPI in the cortex of recipient mice at the indicated time points. Scale bars:[…].
The following FACS antibodies were used in this study. […]
Approximately 50 ul of peripheral blood per mouse was collected from the facial vein into a 1.5 ml tubes containing 20ul of 0.5M EDTA. […] The resulting cells were analyzed by flow cytometry.

Data set [2] deals with brain myeloid cells (CD45+CD11b+). Description: HSCT followed by PLX5622 treatment: donor (GFP+) myeloid chimerism in the brain by flow cytometry. The format is in vivo, mouse. An excerpt:
Microglia depletion after HSCT results in near complete replacement of microglia with bone marrow-derived cells throughout the entire brain. We next tested whether CSF1R inhibition after HSCT enhanced microglia replacement. We therefore performed conventional HSCT with GFP-labeled fresh bone marrow cells. After 28 days, we treated the experimental group with PLX5622 for 10 days and the control group received no drug (FIG. 2A). After another 10 days (7 weeks post transplant) we analyzed the brains and consistently found over 90% of all brain myeloid cells to be GFP^+ by flow cytometry (FIG. 2B, C). […] The transplanted CDMCs had homogeneously populated the entire brain (FIG. 2E). Importantly, this high chimerism was stable and CDMCs remained incorporated for at least 6 months after transplantation (FIG. 2C, 9E).
PLX5622 was provided by Plexxikon Inc. and incorporated to AIN-76A standard chow by Research Diets Inc. at 1200 mg/kg.
Unless otherwise noted, we used female mice at age of 8-12 weeks for both recipients and donors. WT mice were pre-treated with PLX5622 diet between day-21 and day −1 (21 days) and/or busulfan between day-6 and −2 day (5 days). For busulfan pre-treatment, mice received five intraperitoneal (IP) injections of busulfan (sigma, B1 170000) at 25 mg/kg body weight per day. On day 0, bone marrow cells (BMCs) were isolated from tibias and femurs of UBC-GFP mice. Isolated BMCs were resuspended in 1×red blood cell lysis buffer (e-bioscience, 00-4300-54) and incubated for 20 min at room temperature. BMCs were passed through 70 μm cell strainer, washed by applying 10 ml of ice cold PBS and then resuspended in fresh PBS. BMCs (5×10^6) in 200 ul PBS were injected into the retro-orbital sinus of the pre-conditioned recipients. On day 28, the recipient mice were treated with PLX5622 or control diet for 10 days. For tamoxifen injection, tamoxifen (sigma T5648) in corn oil (sigma, C8267) was provided by IP injection to the recipient mice at 200 mg/kg at the indicated time points after bone marrow transplantation.
Microglia cells were isolated from adult mouse brains as described (Shibuya et al., 2014). Anesthetized mice (100 mg/kg of ketamin and 10 mg/kg of xylazine, i.p.) were perfused through the left ventricle with ice-cold PBS without Ca^2+ and Mg^2+. Brains were removed and cut into two pieces along the midline. One hemisphere was immediately transferred to 4% paraformaldehyde for fixation. The other hemi-sphere was minced with a surgical knife, and then transferred to ice-cold HBSS without Ca^2+ and Mg^2+. Minced hemi-brains were centrifuged at 300×g for 2 min at room temperature and then enzymatically digested at 37° C. for 35 min by using Neural Tissue Dissociation Kit (Miltenyi Biotec, 130-092-628) according to the manufacturer's protocol. The cell suspension was passed through a 70 µm cell strainer and washed by applying 10 ml of HBSS with Ca^2+ and Mg^2+ to the strainer. The cell suspension was centrifuged at 300×g for 10 min at room temperature, re-suspended in 30% Percoll (GE Healthcare Lifesciences, 17089102), and then centrifuged at 700×g for 10 min at 4° C. The supernatant containing the myelin was removed and the pellet was washed with 10 ml of HBSS with Ca^2+ and Mg^2+. The resulting pellet was resuspended in FACS buffer and subjected to antibody staining for flow cytometry. Microglia/CDMCs were identified using anti-CD45 and anti-CD11b antibodies.
The following FACS antibodies were used in this study. CD11b (clone M1/70, BioLegend), CD45 (Clone 30-F11, BD biosciences), F4/80 (clone BM8, biolegend), CCR2 (clone SA203G11, biolegend), gp49A/B (clone H1.1), CD115 (CSF1R) (clone AFS98, biolegend), CD117 (c-kit) (clone 2B8, BD biosciences), sca-1 (clone D7, biolegend), cd127 (IL7Ra)(clone SB/199, biolegend), CD16/CD32 (FcR Ill/II) (clone 93, biolegend), CX3CR1 (clone K0124E1, biolegend), cd135 (Flk-2,)(clone A2F10) CD34 (clone561, biolegend), and Ly6C (clone RB6-8C5). […]

On to `COc1ncc(F)cc1CNc1ccc(Cc2c[nH]c3ncc(C)cc23)c(F)n1` [PLX5622], for which the “composition of peripheral blood cell populations” value in data set [1] is given as “largely unaffected”. For the same compound, the “engraftment of CDMCs into the brain” value in data set [2] (PLX5622 between days 14 and 24 after HSCT, flow cytometry on D34) was “comparably robust and efficient engraftment”. In addition, the “fraction of GFP+ cells among brain myeloid cells” value in data set [2] (PLX5622 pre-treatment before HSCT (busulfan+PLX5622 group), 14 days post IV injection) is on record as “only a marginal increase”. Also, in data set [2] (PLX5622 treatment following HSCT, cortex, d83), the “expression of microglia-specific marker TMEM119 in CDMCs” value is reported as “induced expression of the microglia-specific marker TMEM119 in CDMCs”. The “duration CDMCs remained incorporated (stable high chimerism)” value in data set [2] (after transplantation, PLX5622 10 days from D28) is reported as “at least 6 months”. In addition, the “brain myeloid cells GFP+ by flow cytometry” value in data set [2] (busulfan HSCT, PLX5622 10 days from D28, analysed after another 10 days (7 weeks post transplant)) is “over 90%”. In data set [2] (flow cytometry during treatment after HSCT), the “CDMCs (GFP+) and microglia (GFP-) numbers during PLX5622 treatment” value is recorded as “both cell populations were diminished to similar degrees”.
